Assay results: US9328122B2, “7-substituted Hanfangichin B derivative, and preparation method and use thereof” (HANGZHOU BENSHENG PHARMACEUTICAL CO., LTD., priority 2012, dated 2016)
≈ marks a conversion by molar mass, not a printed value.

Columns and labels:
[1] = tested on: K562/ADR (K562adr, drug-resistant chronic myeloid leukemia) cells; assay: MTT cell growth inhibition, leukemia cells; assay type: cell-based; details: Homo sapiens, K562/ADR, 72 h, MTT
From the text: (§1) Leukemia cell lines: leukemia cell lines: K562adr (drug-resistant, chronic myeloid leukemia, CML), NB4 (acute promyelocytic leukemia, AML), Kasumi-1 (acute myeloid leukemia M2 type, AML-M2), Jurkat (acute lymphoblastic leukemia, ALL), all of which were donated by Cancer Research Institute of Zhejiang University, China; and H9 (acute lymphoblastic leukemia, ALL), which was purchased from China Center for Type Culture Collection.
(§2) Reagents: The standard sample of fangchinoline (FAN) was purchased from Ci Yuan Biotechnology Co., Ltd., Shaanxi, China; and the 7-substituted fangchinoline derivatives according to the present invention.
(§3) 6000 well-growing leukemia cells were obtained and inoculated into wells of a 96-well cell culture plate. The culture medium was a RPMI-1640 cell culture medium containing 10% fetal bovine serum. After adding the 7-substituted fangchinoline derivatives of different concentrations the next day and mixing uniformly, the plate was placed in a carbon dioxide cell incubator (5% CO2) at 37° C. and incubating for 72 hours. Then the viable cell concentration was determined by the MTT method.

[2] = tested on: NB4 (acute promyelocytic leukemia) cells; assay: MTT cell growth inhibition, leukemia cells; assay type: cell-based; details: Homo sapiens, NB4, 72 h, MTT
From the text: as §1, §2, §3

[3] = tested on: RPMI 8226 (multiple myeloma) cells; assay: MTT cell growth inhibition, multiple myeloma cells; assay type: cell-based, human; details: Homo sapiens, RPMI 8226, 72 h, MTT
Protocol: Myeloma cell lines: RPMI8226 (multiple myeloma), purchased from Fuxiang Bio-tech Co. Ltd., Shanghai, China.
as §3, with “well-growing” for “well-growing leukemia”, “incubated” for “incubating”

[4] = tested on: CNE (nasopharyngeal carcinoma) cells; assay: MTT cell growth inhibition, solid tumor cells; assay type: cell-based, human; details: Homo sapiens, CNE, 72 h, MTT
From the text: (§4) Hep-2 (laryngeal carcinoma), A549 (human lung cancer), CaES-17 (esophageal cancer cell), PC-3 (prostate cancer), CNE (nasopharyngeal carcinoma cell) and SK-OV-3 (ovarian cancer cell), all of which were purchased from China Center For Type Culture Collection; RKO (human colon adenocarcinoma cell), MGC-803 (human gastric cancer cell), MG-63 (osteosarcoma), and U87-MG (malignant glioma cell), all of which were purchased from Fuxiang Bio-tech Co. Ltd., Shanghai, China; PANC-1 (pancreatic cancer), Becap37 (human breast cancer cell), Hela (human cervical cancer cell) and Hep G2 (human liver cancer cell), all of which were donated by Cancer Research Institute of Zhejiang University, China.
as §3, with “human solid tumor” for “leukemia”, “DMEM High Glucose” for “a RPMI-1640”, “serum. The plate was placed in a carbon dioxide cell incubator (5% CO2) at 37° C. and incubated for 24 hours.” for “serum.”, “added with” for “adding the”, “concentration” for “concentrations the next day”, “incubated” for “incubating”

[5] = tested on: CaEs-17 (esophageal cancer) cells; assay: MTT cell growth inhibition, solid tumor cells; assay type: cell-based, human; details: Homo sapiens, CaEs17, CaEs-17, 72 h, MTT
From the text: as §4
as §3, with “human solid tumor” for “leukemia”, “DMEM High Glucose” for “a RPMI-1640”, “serum. The plate was placed in a carbon dioxide cell incubator (5% CO2) at 37° C. and incubated for 24 hours.” for “serum.”, “added with” for “adding the”, “concentration” for “concentrations the next day”, “incubated” for “incubating”

[6] = tested on: PANC-1 (pancreatic cancer) cells; assay: MTT cell growth inhibition, solid tumor cells; assay type: cell-based, human; details: Homo sapiens, PANC-1, 72 h, MTT
From the text: as §4
as §3, with “human solid tumor” for “leukemia”, “DMEM High Glucose” for “a RPMI-1640”, “serum. The plate was placed in a carbon dioxide cell incubator (5% CO2) at 37° C. and incubated for 24 hours.” for “serum.”, “added with” for “adding the”, “concentration” for “concentrations the next day”, “incubated” for “incubating”

[7] = tested on: PC-3 (prostate cancer) cells; assay: MTT cell growth inhibition, solid tumor cells; assay type: cell-based, human; details: Homo sapiens, PC-3, 72 h, MTT
From the text: as §4
as §3, with “human solid tumor” for “leukemia”, “DMEM High Glucose” for “a RPMI-1640”, “serum. The plate was placed in a carbon dioxide cell incubator (5% CO2) at 37° C. and incubated for 24 hours.” for “serum.”, “added with” for “adding the”, “concentration” for “concentrations the next day”, “incubated” for “incubating”

[8] = tested on: SK-OV-3 (ovarian cancer) cells; assay: MTT cell growth inhibition, solid tumor cells; assay type: cell-based, human; details: Homo sapiens, SK-OV-3, 72 h, MTT
From the text: as §4
as §3, with “human solid tumor” for “leukemia”, “DMEM High Glucose” for “a RPMI-1640”, “serum. The plate was placed in a carbon dioxide cell incubator (5% CO2) at 37° C. and incubated for 24 hours.” for “serum.”, “added with” for “adding the”, “concentration” for “concentrations the next day”, “incubated” for “incubating”

[9] = tested on: A549 (human lung cancer) cells; assay: MTT cell growth inhibition, solid tumor cells; assay type: cell-based; details: Homo sapiens, A549, 72 h, MTT
From the text: as §4
as §3, with “human solid tumor” for “leukemia”, “DMEM High Glucose” for “a RPMI-1640”, “serum. The plate was placed in a carbon dioxide cell incubator (5% CO2) at 37° C. and incubated for 24 hours.” for “serum.”, “added with” for “adding the”, “concentration” for “concentrations the next day”, “incubated” for “incubating”

[10] = tested on: Becap-37 (human breast cancer) cells; assay: MTT cell growth inhibition, solid tumor cells; assay type: cell-based; details: Homo sapiens, Becap-37, 72 h, MTT
From the text: as §4
as §3, with “human solid tumor” for “leukemia”, “DMEM High Glucose” for “a RPMI-1640”, “serum. The plate was placed in a carbon dioxide cell incubator (5% CO2) at 37° C. and incubated for 24 hours.” for “serum.”, “added with” for “adding the”, “concentration” for “concentrations the next day”, “incubated” for “incubating”

[11] = tested on: Hela (human cervical cancer) cells; assay: MTT cell growth inhibition, solid tumor cells; assay type: cell-based; details: Homo sapiens, Hela, 72 h, MTT
From the text: as §4
as §3, with “human solid tumor” for “leukemia”, “DMEM High Glucose” for “a RPMI-1640”, “serum. The plate was placed in a carbon dioxide cell incubator (5% CO2) at 37° C. and incubated for 24 hours.” for “serum.”, “added with” for “adding the”, “concentration” for “concentrations the next day”, “incubated” for “incubating”

[12] = tested on: Hep G2 (human liver cancer) cells; assay: MTT cell growth inhibition, solid tumor cells; assay type: cell-based; details: Homo sapiens, HepG2, Hep G2, 72 h, MTT
From the text: as §4
as §3, with “human solid tumor” for “leukemia”, “DMEM High Glucose” for “a RPMI-1640”, “serum. The plate was placed in a carbon dioxide cell incubator (5% CO2) at 37° C. and incubated for 24 hours.” for “serum.”, “added with” for “adding the”, “concentration” for “concentrations the next day”, “incubated” for “incubating”

[13] = tested on: Hep-2 (laryngeal carcinoma) cells; assay: MTT cell growth inhibition, solid tumor cells; assay type: cell-based; details: Homo sapiens, Hep-2, 72 h, MTT
From the text: as §4
as §3, with “human solid tumor” for “leukemia”, “DMEM High Glucose” for “a RPMI-1640”, “serum. The plate was placed in a carbon dioxide cell incubator (5% CO2) at 37° C. and incubated for 24 hours.” for “serum.”, “added with” for “adding the”, “concentration” for “concentrations the next day”, “incubated” for “incubating”

[14] = tested on: MG-63 (osteosarcoma) cells; assay: MTT cell growth inhibition, solid tumor cells; assay type: cell-based; details: Homo sapiens, MG-63, 72 h, MTT
From the text: as §4
as §3, with “human solid tumor” for “leukemia”, “DMEM High Glucose” for “a RPMI-1640”, “serum. The plate was placed in a carbon dioxide cell incubator (5% CO2) at 37° C. and incubated for 24 hours.” for “serum.”, “added with” for “adding the”, “concentration” for “concentrations the next day”, “incubated” for “incubating”

[15] = tested on: MGC-803 (human gastric cancer) cells; assay: MTT cell growth inhibition, solid tumor cells; assay type: cell-based; details: MGC-803, 72 h, MTT
From the text: as §4
as §3, with “human solid tumor” for “leukemia”, “DMEM High Glucose” for “a RPMI-1640”, “serum. The plate was placed in a carbon dioxide cell incubator (5% CO2) at 37° C. and incubated for 24 hours.” for “serum.”, “added with” for “adding the”, “concentration” for “concentrations the next day”, “incubated” for “incubating”

[16] = tested on: RKO (human colon adenocarcinoma) cells; assay: MTT cell growth inhibition, solid tumor cells; assay type: cell-based; details: Homo sapiens, RKO, 72 h, MTT
From the text: as §4
as §3, with “human solid tumor” for “leukemia”, “DMEM High Glucose” for “a RPMI-1640”, “serum. The plate was placed in a carbon dioxide cell incubator (5% CO2) at 37° C. and incubated for 24 hours.” for “serum.”, “added with” for “adding the”, “concentration” for “concentrations the next day”, “incubated” for “incubating”

[17] = tested on: U87-MG (malignant glioma) cells; assay: MTT cell growth inhibition, solid tumor cells; assay type: cell-based; details: Homo sapiens, U-87 MG, U87-MG, 72 h, MTT
From the text: as §4
as §3, with “human solid tumor” for “leukemia”, “DMEM High Glucose” for “a RPMI-1640”, “serum. The plate was placed in a carbon dioxide cell incubator (5% CO2) at 37° C. and incubated for 24 hours.” for “serum.”, “added with” for “adding the”, “concentration” for “concentrations the next day”, “incubated” for “incubating”

tumor = assay: Antitumor activity compared with fangchinoline, overall statement; assay type: cell-based; details: tumor type not specified

## COc1ccc2cc1Oc1ccc(cc1)C[C@H]1c3cc(c(OC)cc3CCN1C)Oc1c(OS(=O)(=O)c3ccccc3)c(OC)cc3c1[C@H](C2)N(C)CC3 [BS-FC-104]
[1]; read-out: IC50
  IC50: 0.42 µg/mL (≈ 0.561 µM)
[1]; read-out: IC90
  IC90: 2.65 µg/mL (≈ 3.54 µM)
[2]; read-out: IC50
  IC50: 0.28 µg/mL (≈ 0.374 µM)
[2]; read-out: IC90
  IC90: 0.92 µg/mL (≈ 1.23 µM)
[3]; read-out: IC50
  IC50: 0.12 µg/mL (≈ 0.16 µM)
[3]; read-out: IC90
  IC90: 0.5 µg/mL (≈ 0.668 µM)
[4]; read-out: IC50
  IC50: 2.5 µg/mL (≈ 3.34 µM)
[4]; read-out: IC90
  IC90: 4.9 µg/mL (≈ 6.54 µM)
[5]; read-out: IC50
  IC50: 2 µg/mL (≈ 2.67 µM)
[5]; read-out: IC90
  IC90: 7.42 µg/mL (≈ 9.91 µM)
[6]; read-out: IC50
  IC50: 2.01 µg/mL (≈ 2.68 µM)
[6]; read-out: IC90
  IC90: 10.8 µg/mL (≈ 14.4 µM)
[7]; read-out: IC50
  IC50: 2.5 µg/mL (≈ 3.34 µM)
[7]; read-out: IC90
  IC90: 5.51 µg/mL (≈ 7.36 µM)
[8]; read-out: IC50
  IC50: 1.88 µg/mL (≈ 2.51 µM)
[8]; read-out: IC90
  IC90: 3.79 µg/mL (≈ 5.06 µM)
[9]; read-out: IC50
  IC50: 1.57 µg/mL (≈ 2.1 µM)
[9]; read-out: IC90
  IC90: 3.94 µg/mL (≈ 5.26 µM)
[10]; read-out: IC50
  IC50: 1.92 µg/mL (≈ 2.56 µM)
[10]; read-out: IC90
  IC90: 3.94 µg/mL (≈ 5.26 µM)
[11]; read-out: IC50
  IC50: 1 µg/mL (≈ 1.34 µM)
[11]; read-out: IC90
  IC90: 3.42 µg/mL (≈ 4.57 µM)
[12]; read-out: IC50
  IC50: 1.44 µg/mL (≈ 1.92 µM)
[12]; read-out: IC90
  IC90: 3.9 µg/mL (≈ 5.21 µM)
[13]; read-out: IC50
  IC50: 3.18 µg/mL (≈ 4.25 µM)
[13]; read-out: IC90
  IC90: 10.2 µg/mL (≈ 13.6 µM)
[14]; read-out: IC50
  IC50: 2.71 µg/mL (≈ 3.62 µM)
[14]; read-out: IC90
  IC90: 3.88 µg/mL (≈ 5.18 µM)
[15]; read-out: IC50
  IC50: 1.36 µg/mL (≈ 1.82 µM)
[15]; read-out: IC90
  IC90: 4.28 µg/mL (≈ 5.72 µM)
[16]; read-out: IC50
  IC50: 0.74 µg/mL (≈ 0.988 µM)
[16]; read-out: IC90
  IC90: 1.76 µg/mL (≈ 2.35 µM)
[17]; read-out: IC50
  IC50: 1.63 µg/mL (≈ 2.18 µM)
[17]; read-out: IC90
  IC90: 4.5 µg/mL (≈ 6.01 µM)
tumor
  antitumor activity compared with that of fangchinoline: significantly superior
